≈ marks a conversion by molar mass, not a printed value. Calls of active or inactive are those of the source. The calls are words filed in the database; no cut-off is given here.
Columns and labels:
Streptococcus viridans [1] = experiment: Antibacterial activity against Streptococcus viridans clinical isolate assessed as susceptibility level by broth microdilution method; assay type: functional
[2] = system: Streptococcus constellatus; experiment: Antibacterial activity against Streptococcus constellatus clinical isolate assessed as susceptibility level by broth microdilution method; assay type: functional
Streptococcus oralis [3] = experiment: Antibacterial activity against Streptococcus oralis clinical isolate assessed as susceptibility level by broth microdilution method; assay type: functional
[4] = system: Streptococcus intermedius; experiment: Antibacterial activity against Streptococcus intermedius clinical isolate assessed as susceptibility level by broth microdilution method; assay type: functional
Streptococcus mitis [5] = experiment: Antibacterial activity against Streptococcus mitis clinical isolate assessed as susceptibility level by broth microdilution method; assay type: functional
Streptococcus agalactiae [6] = experiment: Antibacterial activity against Streptococcus agalactiae group B clinical isolate assessed as susceptibility level by broth microdilution method; assay type: functional
Streptococcus pyogenes [7] = experiment: Antibacterial activity against Streptococcus pyogenes group A clinical isolate assessed as susceptibility level by broth microdilution method; assay type: functional
Streptococcus pneumoniae [8] = experiment: Antibacterial activity against multidrug-resistant Streptococcus pneumoniae clinical isolate assessed as susceptibility level by broth microdilution method; assay type: functional
Streptococcus pneumoniae [9] = experiment: Antibacterial activity against penicillin resistant Streptococcus pneumoniae clinical isolate assessed as susceptibility level by broth microdilution method; assay type: functional
Streptococcus pneumoniae [10] = experiment: Antibacterial activity against penicillin intermediate Streptococcus pneumoniae clinical isolate assessed as susceptibility level by broth microdilution method; assay type: functional
Streptococcus viridans [11] = experiment: Antibacterial activity against Streptococcus viridans clinical isolate by broth microdilution method; assay type: functional
[12] = system: Streptococcus constellatus; experiment: Antibacterial activity against Streptococcus constellatus clinical isolate by broth microdilution method; assay type: functional
Streptococcus oralis [13] = experiment: Antibacterial activity against Streptococcus oralis clinical isolate by broth microdilution method; assay type: functional
[14] = system: Streptococcus intermedius; experiment: Antibacterial activity against Streptococcus intermedius clinical isolate by broth microdilution method; assay type: functional
Streptococcus mitis [15] = experiment: Antibacterial activity against Streptococcus mitis clinical isolate by broth microdilution method; assay type: functional
Streptococcus agalactiae [16] = experiment: Antibacterial activity against Streptococcus agalactiae group B clinical isolate by broth microdilution method; assay type: functional
Streptococcus pyogenes [17] = experiment: Antibacterial activity against Streptococcus pyogenes group A clinical isolate by broth microdilution method; assay type: functional
Streptococcus pneumoniae [18] = experiment: Antibacterial activity against multidrug-resistant Streptococcus pneumoniae clinical isolate by broth microdilution method; assay type: functional
Streptococcus pneumoniae [19] = experiment: Antibacterial activity against penicillin resistant Streptococcus pneumoniae clinical isolate by broth microdilution method; assay type: functional
Streptococcus pneumoniae [20] = experiment: Antibacterial activity against penicillin intermediate Streptococcus pneumoniae clinical isolate by broth microdilution method; assay type: functional

Structure (SMILES)	Activity (Streptococcus pneumoniae [10])	MIC (Streptococcus viridans [11])	MIC50 (Streptococcus viridans [11])	MIC90 (Streptococcus viridans [11])	MIC [12]	MIC50 [12]	MIC90 [12]	MIC (Streptococcus oralis [13])	MIC50 (Streptococcus oralis [13])	MIC90 (Streptococcus oralis [13])	MIC [14]	MIC50 [14]	MIC90 [14]	MIC (Streptococcus mitis [15])	MIC50 (Streptococcus mitis [15])	MIC90 (Streptococcus mitis [15])	MIC50 (Streptococcus agalactiae [16])	MIC90 (Streptococcus agalactiae [16])	MIC50 (Streptococcus pyogenes [17])	MIC90 (Streptococcus pyogenes [17])	other results
O=C(O)c1cn(C2CC2)c2cc(N3CCNCC3)c(F)cc2c1=O	–	–	–	–	–	–	–	–	–	–	–	–	–	–	–	–	–	–	–	–	MIC50 (Enterococcus faecalis): inactive; MIC90 (Enterococcus faecalis): inactive
CO/N=C(\C(=O)N[C@@H]1C(=O)N2C(C(=O)O)=C(CSc3nc(=O)c(O)nn3C)CS[C@H]12)c1csc(N)n1 [CEFTRIAXONE]	92%	0.03 µg/mL (≈ 0.0541 µM)	inactive	inactive	0.03 µg/mL (≈ 0.0541 µM)	inactive	inactive	0.03 µg/mL (≈ 0.0541 µM)	inactive	inactive	0.03 µg/mL (≈ 0.0541 µM)	inactive	inactive	0.03 µg/mL (≈ 0.0541 µM)	inactive	inactive	0.06 µg/mL (≈ 0.108 µM)	0.06 µg/mL (≈ 0.108 µM)	≤ 0.015 µg/mL	0.12 µg/mL (≈ 0.216 µM)	Activity (Streptococcus viridans [1]): 75%; Activity [2]: 75%; Activity (Streptococcus oralis [3]): 75%; Activity [4]: 75%; Activity (Streptococcus mitis [5]): 75%; Activity (Streptococcus agalactiae [6]): 96%; Activity (Streptococcus pyogenes [7]): 92%; Activity (Streptococcus pneumoniae [8]): 77%; Activity (Streptococcus pneumoniae [9]): 73%; MIC (Streptococcus pyogenes [17]): ≤ 0.015 µg/mL; MIC50 (Streptococcus pneumoniae [18]): 1 µg/mL (≈ 1.8 µM); MIC90 (Streptococcus pneumoniae [18]): 2 µg/mL (≈ 3.61 µM); MIC50 (Streptococcus pneumoniae [19]): 1 µg/mL (≈ 1.8 µM); MIC90 (Streptococcus pneumoniae [19]): 2 µg/mL (≈ 3.61 µM); MIC50 (Streptococcus pneumoniae [20]): 0.5 µg/mL (≈ 0.902 µM); MIC90 (Streptococcus pneumoniae [20]): 1 µg/mL (≈ 1.8 µM)
CO/N=C(\C(=O)N[C@@H]1C(=O)N2C(C(=O)O)=C(COC(N)=O)CS[C@H]12)c1ccco1 [CEFUROXIME]	17%	≤ 0.12 µg/mL	inactive	inactive	≤ 0.12 µg/mL	inactive	inactive	≤ 0.12 µg/mL	inactive	inactive	≤ 0.12 µg/mL	inactive	inactive	≤ 0.12 µg/mL	inactive	inactive	≤ 0.12 µg/mL	≤ 0.12 µg/mL	≤ 0.12 µg/mL	0.25 µg/mL (≈ 0.589 µM)	Activity (Streptococcus pneumoniae [8]): 2%; Activity (Streptococcus pneumoniae [9]): 2%; MIC (Streptococcus agalactiae [16]): ≤ 0.12 µg/mL; MIC (Streptococcus pyogenes [17]): ≤ 0.12 µg/mL; MIC50 (Streptococcus pneumoniae [18]): > 4 µg/mL; MIC90 (Streptococcus pneumoniae [18]): > 4 µg/mL; MIC50 (Streptococcus pneumoniae [19]): > 4 µg/mL; MIC90 (Streptococcus pneumoniae [19]): > 4 µg/mL; MIC50 (Streptococcus pneumoniae [20]): 2 µg/mL (≈ 4.71 µM); MIC90 (Streptococcus pneumoniae [20]): 4 µg/mL (≈ 9.43 µM)
CCC[C@@H]1C[C@@H](C(=O)N[C@@H]([C@H]2O[C@H](SC)[C@H](O)[C@@H](O)[C@H]2O)[C@H](C)Cl)N(C)C1 [CLINDAMYCIN]	83%	≤ 0.03 µg/mL	inactive	inactive	≤ 0.03 µg/mL	inactive	inactive	≤ 0.03 µg/mL	inactive	inactive	≤ 0.03 µg/mL	inactive	inactive	≤ 0.03 µg/mL	inactive	inactive	0.06 µg/mL (≈ 0.141 µM)	> 0.25 µg/mL	≤ 0.03 µg/mL	0.06 µg/mL (≈ 0.141 µM)	Activity (Streptococcus viridans [1]): 88%; Activity [2]: 88%; Activity (Streptococcus oralis [3]): 88%; Activity [4]: 88%; Activity (Streptococcus mitis [5]): 88%; Activity (Streptococcus agalactiae [6]): 86%; Activity (Streptococcus pyogenes [7]): 98%; Activity (Streptococcus pneumoniae [8]): 73%; Activity (Streptococcus pneumoniae [9]): 76%; MIC (Streptococcus pyogenes [17]): ≤ 0.03 µg/mL; MIC50 (Streptococcus pneumoniae [18]): 0.06 µg/mL (≈ 0.141 µM); MIC90 (Streptococcus pneumoniae [18]): > 0.25 µg/mL; MIC50 (Streptococcus pneumoniae [19]): 0.06 µg/mL (≈ 0.141 µM); MIC90 (Streptococcus pneumoniae [19]): > 0.25 µg/mL; MIC (Streptococcus pneumoniae [20]): 0.06 µg/mL (≈ 0.141 µM); MIC50 (Streptococcus pneumoniae [20]): 0.06 µg/mL (≈ 0.141 µM); MIC90 (Streptococcus pneumoniae [20]): 0.5 µg/mL (≈ 1.18 µM)
C[C@H]1COc2c(N3CCN(C)CC3)c(F)cc3c(=O)c(C(=O)O)cn1c23.C[C@H]1COc2c(N3CCN(C)CC3)c(F)cc3c(=O)c(C(=O)O)cn1c23.O [LEVOFLOXACIN]	92%	≤ 0.12 µg/mL	inactive	inactive	≤ 0.12 µg/mL	inactive	inactive	≤ 0.12 µg/mL	inactive	inactive	≤ 0.12 µg/mL	inactive	inactive	≤ 0.12 µg/mL	inactive	inactive	0.5 µg/mL	1 µg/mL	0.5 µg/mL	1 µg/mL	Activity (Streptococcus viridans [1]): 100%; Activity [2]: 100%; Activity (Streptococcus oralis [3]): 100%; Activity [4]: 100%; Activity (Streptococcus mitis [5]): 100%; Activity (Streptococcus agalactiae [6]): 99%; Activity (Streptococcus pyogenes [7]): 98%; Activity (Streptococcus pneumoniae [8]): 95%; Activity (Streptococcus pneumoniae [9]): 97%; MIC50 (Streptococcus pneumoniae [18]): 0.5 µg/mL; MIC90 (Streptococcus pneumoniae [18]): 1 µg/mL; MIC50 (Streptococcus pneumoniae [19]): 0.5 µg/mL; MIC90 (Streptococcus pneumoniae [19]): 1 µg/mL; MIC50 (Streptococcus pneumoniae [20]): 0.5 µg/mL; MIC90 (Streptococcus pneumoniae [20]): 1 µg/mL
CC1(C)S[C@@H]2[C@H](NC(=O)Cc3ccccc3)C(=O)N2[C@H]1C(=O)O [PENICILLIN G]	0%	≤ 0.06 µg/mL	inactive	inactive	≤ 0.06 µg/mL	inactive	inactive	≤ 0.06 µg/mL	inactive	inactive	≤ 0.06 µg/mL	inactive	inactive	≤ 0.06 µg/mL	inactive	inactive	≤ 0.06 µg/mL	≤ 0.06 µg/mL	≤ 0.06 µg/mL	≤ 0.06 µg/mL	Activity (Streptococcus viridans [1]): 62%; Activity [2]: 62%; Activity (Streptococcus oralis [3]): 62%; Activity [4]: 62%; Activity (Streptococcus mitis [5]): 62%; Activity (Streptococcus agalactiae [6]): 96%; Activity (Streptococcus pyogenes [7]): 93%; MIC (Streptococcus agalactiae [16]): ≤ 0.06 µg/mL; MIC (Streptococcus pyogenes [17]): ≤ 0.06 µg/mL; MIC50 (Streptococcus pneumoniae [18]): 2 µg/mL (≈ 5.98 µM); MIC90 (Streptococcus pneumoniae [18]): > 2 µg/mL; MIC (Streptococcus pneumoniae [19]): 2 µg/mL (≈ 5.98 µM); MIC50 (Streptococcus pneumoniae [19]): 2 µg/mL (≈ 5.98 µM); MIC90 (Streptococcus pneumoniae [19]): > 2 µg/mL; MIC50 (Streptococcus pneumoniae [20]): 1 µg/mL (≈ 2.99 µM); MIC90 (Streptococcus pneumoniae [20]): 1 µg/mL (≈ 2.99 µM)
CN(C)[C@@H]1C(O)=C(C(N)=O)C(=O)[C@@]2(O)C(O)=C3C(=O)c4c(O)cccc4[C@@](C)(O)[C@H]3C[C@@H]12 [TETRACYCLINE]	67%	0.12 µg/mL (≈ 0.27 µM)	inactive	inactive	0.12 µg/mL (≈ 0.27 µM)	inactive	inactive	0.12 µg/mL (≈ 0.27 µM)	inactive	inactive	0.12 µg/mL (≈ 0.27 µM)	inactive	inactive	0.12 µg/mL (≈ 0.27 µM)	inactive	inactive	> 8 µg/mL	> 8 µg/mL	0.12 µg/mL (≈ 0.27 µM)	4 µg/mL (≈ 9 µM)	Activity (Streptococcus viridans [1]): 75%; Activity [2]: 75%; Activity (Streptococcus oralis [3]): 75%; Activity [4]: 75%; Activity (Streptococcus mitis [5]): 75%; Activity (Streptococcus agalactiae [6]): 16%; Activity (Streptococcus pyogenes [7]): 89%; Activity (Streptococcus pneumoniae [8]): 37%; Activity (Streptococcus pneumoniae [9]): 41%; MIC50 (Streptococcus pneumoniae [18]): > 8 µg/mL; MIC50 (Streptococcus pneumoniae [19]): > 8 µg/mL; MIC50 (Streptococcus pneumoniae [20]): 0.12 µg/mL (≈ 0.27 µM); MIC90 (Streptococcus pneumoniae [20]): > 8 µg/mL

Source: ChEMBL document CHEMBL1275440, “In vitro activity of telavancin against resistant gram-positive bacteria” (2008)
